# Test results as given in PubChem BioAssay (NCI).
#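 The compound was tested at five concentrations on cells cultured in 96-well plates, with a 48-hour exposure period. GI50 = concentration required for 50% inhibition of growth. TGI is the concentration that stops growth completely.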
# Key:
# Assay in all cases: NCI anticancer screen, dose series, 48 h
# RXF 393 renal = tested on: RXF 393 renal
# HOP-62 NSCLC = tested on: HOP-62 NSCLC
# MOLT-4 leukemia = tested on: MOLT-4 leukemia
# SK-MEL-5 melanoma = tested on: SK-MEL-5 melanoma
# OVCAR-8 ovarian = tested on: OVCAR-8 ovarian
# SF-268 CNS = tested on: SF-268 CNS
# HCT-116 colon = tested on: HCT-116 colon
# M14 melanoma = tested on: M14 melanoma
# MDA-MB-435 = tested on: MDA-MB-435
# HT29 colon = tested on: HT29 colon
# ACHN renal = tested on: ACHN renal
# TK-10 renal = tested on: TK-10 renal
# UACC-257 melanoma = tested on: UACC-257 melanoma
# T-47D breast = tested on: T-47D breast
# KM12 colon = tested on: KM12 colon
# HOP-92 NSCLC = tested on: HOP-92 NSCLC
# NCI/ADR-RES ovarian = tested on: NCI/ADR-RES ovarian
# COLO 205 colon = tested on: COLO 205 colon
# A549 NSCLC = tested on: A549 NSCLC
# IGROV1 ovarian = tested on: IGROV1 ovarian
# OVCAR-3 ovarian = tested on: OVCAR-3 ovarian
# NCI-H522 lung = tested on: NCI-H522 lung
# EKVX NSCLC = tested on: EKVX NSCLC
# SR leukemia = tested on: SR leukemia
# NCI-H226 lung = tested on: NCI-H226 lung
# HL-60(TB) leukemia = tested on: HL-60(TB) leukemia
# UACC-62 melanoma = tested on: UACC-62 melanoma
# SNB-19 CNS = tested on: SNB-19 CNS
# OVCAR-5 ovarian = tested on: OVCAR-5 ovarian
# UO-31 renal = tested on: UO-31 renal
# NCI-H460 lung = tested on: NCI-H460 lung
# PC-3 prostate = tested on: PC-3 prostate
# BT-549 breast = tested on: BT-549 breast
# A498 renal = tested on: A498 renal
# DU-145 prostate = tested on: DU-145 prostate
# SK-OV-3 ovarian = tested on: SK-OV-3 ovarian
# SW-620 colon = tested on: SW-620 colon
# HS 578T breast = tested on: HS 578T breast
# CAKI-1 renal = tested on: CAKI-1 renal
# SK-MEL-28 melanoma = tested on: SK-MEL-28 melanoma
# SF-295 CNS = tested on: SF-295 CNS
# K-562 leukemia = tested on: K-562 leukemia
# MDA-MB-231 breast = tested on: MDA-MB-231 breast
# SF-539 CNS = tested on: SF-539 CNS
# OVCAR-4 ovarian = tested on: OVCAR-4 ovarian
# HCT-15 colon = tested on: HCT-15 colon
# HCC-2998 colon = tested on: HCC-2998 colon
# SNB-75 CNS = tested on: SNB-75 CNS
# CCRF-CEM leukemia = tested on: CCRF-CEM leukemia
# MCF7 breast = tested on: MCF7 breast
# U251 CNS = tested on: U251 CNS
# RPMI-8226 leukemia = tested on: RPMI-8226 leukemia
# SK-MEL-2 melanoma = tested on: SK-MEL-2 melanoma
# SN12C renal = tested on: SN12C renal
# MALME-3M melanoma = tested on: MALME-3M melanoma
# 786-0 renal = tested on: 786-0 renal
structure (smiles),measurement,setting,value
Fc1ccc(-c2nc(C(Cl)Cl)nc3cc(-c4ccccc4)nn23)cc1,GI50,RXF 393 renal,3.79 µM
same,TGI,RXF 393 renal,18.5 µM
same,GI50,HOP-62 NSCLC,12.1 µM
same,TGI,HOP-62 NSCLC,> 100 µM
same,GI50,MOLT-4 leukemia,7.81 µM
same,TGI,MOLT-4 leukemia,> 100 µM
same,GI50,SK-MEL-5 melanoma,> 100 µM
same,TGI,SK-MEL-5 melanoma,> 100 µM
same,GI50,OVCAR-8 ovarian,7.33 µM
same,TGI,OVCAR-8 ovarian,> 100 µM
same,GI50,SF-268 CNS,> 100 µM
same,TGI,SF-268 CNS,> 100 µM
same,GI50,HCT-116 colon,38.5 µM
same,TGI,HCT-116 colon,> 100 µM
same,GI50,M14 melanoma,> 100 µM
same,TGI,M14 melanoma,> 100 µM
same,GI50,MDA-MB-435,> 100 µM
same,TGI,MDA-MB-435,> 100 µM
same,GI50,HT29 colon,3.92 µM
same,TGI,HT29 colon,> 100 µM
same,GI50,ACHN renal,3.58 µM
same,TGI,ACHN renal,> 100 µM
same,GI50,TK-10 renal,> 100 µM
same,TGI,TK-10 renal,> 100 µM
same,GI50,UACC-257 melanoma,> 100 µM
same,TGI,UACC-257 melanoma,> 100 µM
same,GI50,T-47D breast,> 100 µM
same,TGI,T-47D breast,> 100 µM
same,GI50,KM12 colon,15.9 µM
same,TGI,KM12 colon,> 100 µM
same,GI50,HOP-92 NSCLC,> 100 µM
same,TGI,HOP-92 NSCLC,> 100 µM
same,GI50,NCI/ADR-RES ovarian,6.48 µM
same,TGI,NCI/ADR-RES ovarian,> 100 µM
same,GI50,COLO 205 colon,3.67 µM
same,TGI,COLO 205 colon,21.9 µM
same,GI50,A549 NSCLC,3.72 µM
same,TGI,A549 NSCLC,33.8 µM
same,GI50,IGROV1 ovarian,> 100 µM
same,TGI,IGROV1 ovarian,> 100 µM
same,GI50,OVCAR-3 ovarian,6.13 µM
same,TGI,OVCAR-3 ovarian,> 100 µM
same,GI50,NCI-H522 lung,7.36 µM
same,TGI,NCI-H522 lung,> 100 µM
same,GI50,EKVX NSCLC,7.79 µM
same,TGI,EKVX NSCLC,> 100 µM
same,GI50,SR leukemia,5.23 µM
same,TGI,SR leukemia,> 100 µM
same,GI50,NCI-H226 lung,> 100 µM
same,TGI,NCI-H226 lung,> 100 µM
same,GI50,HL-60(TB) leukemia,3.79 µM
same,TGI,HL-60(TB) leukemia,> 100 µM
same,GI50,UACC-62 melanoma,> 100 µM
same,TGI,UACC-62 melanoma,> 100 µM
same,GI50,SNB-19 CNS,10.5 µM
same,TGI,SNB-19 CNS,> 100 µM
same,GI50,OVCAR-5 ovarian,22.3 µM
same,TGI,OVCAR-5 ovarian,> 100 µM
same,GI50,UO-31 renal,> 100 µM
same,TGI,UO-31 renal,> 100 µM
same,GI50,NCI-H460 lung,3.63 µM
same,TGI,NCI-H460 lung,> 100 µM
same,GI50,PC-3 prostate,> 100 µM
same,TGI,PC-3 prostate,> 100 µM
same,GI50,BT-549 breast,> 100 µM
same,TGI,BT-549 breast,> 100 µM
same,GI50,A498 renal,> 100 µM
same,TGI,A498 renal,> 100 µM
same,GI50,DU-145 prostate,2.46 µM
same,TGI,DU-145 prostate,6.55 µM
same,GI50,SK-OV-3 ovarian,10.7 µM
same,TGI,SK-OV-3 ovarian,> 100 µM
same,GI50,SW-620 colon,5.05 µM
same,TGI,SW-620 colon,> 100 µM
same,GI50,HS 578T breast,> 100 µM
same,TGI,HS 578T breast,> 100 µM
same,GI50,CAKI-1 renal,16 µM
same,TGI,CAKI-1 renal,> 100 µM
same,GI50,SK-MEL-28 melanoma,> 100 µM
same,TGI,SK-MEL-28 melanoma,> 100 µM
same,GI50,SF-295 CNS,28.2 µM
same,TGI,SF-295 CNS,> 100 µM
same,GI50,K-562 leukemia,15.9 µM
same,TGI,K-562 leukemia,> 100 µM
same,GI50,MDA-MB-231 breast,35.4 µM
same,TGI,MDA-MB-231 breast,> 100 µM
same,GI50,SF-539 CNS,> 100 µM
same,TGI,SF-539 CNS,> 100 µM
same,GI50,OVCAR-4 ovarian,7.21 µM
same,TGI,OVCAR-4 ovarian,> 100 µM
same,GI50,HCT-15 colon,4.64 µM
same,TGI,HCT-15 colon,> 100 µM
same,GI50,HCC-2998 colon,2.27 µM
same,TGI,HCC-2998 colon,6.21 µM
same,GI50,SNB-75 CNS,> 100 µM
same,TGI,SNB-75 CNS,> 100 µM
same,GI50,CCRF-CEM leukemia,> 100 µM
same,TGI,CCRF-CEM leukemia,> 100 µM
same,GI50,MCF7 breast,7.36 µM
same,TGI,MCF7 breast,> 100 µM
same,GI50,U251 CNS,5.79 µM
same,TGI,U251 CNS,> 100 µM
same,GI50,RPMI-8226 leukemia,> 100 µM
same,TGI,RPMI-8226 leukemia,> 100 µM
same,GI50,SK-MEL-2 melanoma,> 100 µM
same,TGI,SK-MEL-2 melanoma,> 100 µM
same,GI50,SN12C renal,> 100 µM
same,TGI,SN12C renal,> 100 µM
same,GI50,MALME-3M melanoma,> 100 µM
same,TGI,MALME-3M melanoma,> 100 µM
same,GI50,786-0 renal,> 100 µM
same,TGI,786-0 renal,> 100 µM
